The values below are quoted from earlier work in patent publication US20040142049A1, “Compositions having tnf production inhibitory effect and tnf production inhibitors” (priority 2001, published 2004).

This series relates to TNF. The settings on record: background art, prior publications.

For `COc1cc(/C=C/C(=O)CC(=O)/C=C/c2ccc(O)c(OC)c2)ccc1O` [curcumin], the “TNF production inhibitory effect (in words)” value is recorded as “has a TNF production inhibitory effect”.
